In PubChem BioAssay AID288 (DTP/NCI, 2004):
Values joined by “and” are separate entries in the source; they are usually repeats but may differ in a detail not shown here. Equal entries are not always repeated. Inconclusive results are not listed.

Tested on: BDF1 mice, M5076 sarcoma s.c., survival/tumor T/C
Assay: NCI In Vivo Anticancer Drug Screen. Data for tumor model Sarcoma M5076 (subcutaneous) in B6D2F1 (BDF1) mice
Procedure: The antitumor activity of compounds was measured in mice bearing transplantable tumors. Survival or tumor size were measured and the results are expressed as the measurement made in the treated group (T) divided by the measurement made in the vehicle treated control group (C). The tumor model used in this assay is Sarcoma M5076 (subcutaneous) in B6D2F1 (BDF1) mice

How did the T/C (endpoint: median survival time, dose: 25.0 mg/kg/injection, schedule: Q02DX030 (ip), vehicle: saline with Tween-80, higher = longer survival) turn out when `CCCCCCCCCCCCCCCc1ccc(O)cc1O` was run?
Its T/C is 119 % of control.

What about the T/C (endpoint: median survival time, dose: 50.0 mg/kg/injection, schedule: Q02DX030 (ip), vehicle: saline with Tween-80, higher = longer survival) of the same molecule?
The T/C was 111 % of control.

For `Nc1nc(=S)c2[nH]cnc2[nH]1`, which T/C (endpoint: mean tumor weight, dose: 0.5 mg/kg/injection, schedule: Q02DX011 (ip), vehicle: Klucel (hydroxypropylcellulose) (HPC), higher = larger tumour) is on record?
Its T/C is 58 % of control.

What about the T/C (endpoint: mean tumor weight, dose: 1.0 mg/kg/injection, schedule: Q02DX011 (ip), vehicle: Klucel (hydroxypropylcellulose) (HPC), higher = larger tumour) of the same molecule?
The T/C was 16 % of control.

What about the T/C (endpoint: mean tumor weight, dose: 2.0 mg/kg/injection, schedule: Q02DX011 (ip), vehicle: Klucel (hydroxypropylcellulose) (HPC), higher = larger tumour) of the same molecule?
The T/C was 3 % of control.

What does the source list for `NC1=NC(O)C=C1` (centres undefined)?
T/C (endpoint: median survival time, dose: 5.0 mg/kg/injection, schedule: Q01DX009 (ip), vehicle: saline, higher = longer survival): 103 % of control; T/C (endpoint: median survival time, dose: 10.0 mg/kg/injection, schedule: Q01DX009 (ip), vehicle: saline, higher = longer survival): 96 % of control; T/C (endpoint: median survival time, dose: 20.0 mg/kg/injection, schedule: Q01DX009 (ip), vehicle: saline, higher = longer survival): 94 % of control; T/C (endpoint: median survival time, dose: 40.0 mg/kg/injection, schedule: Q01DX009 (ip), vehicle: saline, higher = longer survival): 96 % of control; T/C (endpoint: median survival time, dose: 80.0 mg/kg/injection, schedule: Q01DX009 (ip), vehicle: saline, higher = longer survival): 103 % of control; T/C (endpoint: median tumor weight (est.), dose: 5.0 mg/kg/injection, schedule: Q01DX009 (ip), vehicle: saline, higher = larger tumour): 115 % of control; T/C (endpoint: median tumor weight (est.), dose: 10.0 mg/kg/injection, schedule: Q01DX009 (ip), vehicle: saline, higher = larger tumour): 63 % of control; T/C (endpoint: median tumor weight (est.), dose: 20.0 mg/kg/injection, schedule: Q01DX009 (ip), vehicle: saline, higher = larger tumour): 169 % of control; T/C (endpoint: median tumor weight (est.), dose: 40.0 mg/kg/injection, schedule: Q01DX009 (ip), vehicle: saline, higher = larger tumour): 96 % of control; T/C (endpoint: median tumor weight (est.), dose: 80.0 mg/kg/injection, schedule: Q01DX009 (ip), vehicle: saline, higher = larger tumour): 68 % of control

For `O=NN(CCCl)C(=O)NC1CCC(=O)NC1=O` (centres undefined), which T/C (endpoint: median survival time, dose: 2.0 mg/kg/injection, schedule: Q01DX009 (ip), vehicle: saline + alcohol, higher = longer survival) is on record?
Its T/C is 170 % of control.

And the T/C (endpoint: median survival time, dose: 4.0 mg/kg/injection, schedule: Q01DX009 (ip), vehicle: saline + alcohol, higher = longer survival)?
The T/C was 208 % of control.

And the T/C (endpoint: median survival time, dose: 8.0 mg/kg/injection, schedule: Q01DX009 (ip), vehicle: saline + alcohol, higher = longer survival)?
Its T/C is 86 % of control.

`OC(C1CO1)C(O)C1CO1` (centres undefined) was tested. Which T/C (endpoint: mean tumor weight, dose: 1.0 mg/kg/injection, schedule: Q02DX011 (ip), vehicle: saline, higher = larger tumour) did it give?
Its T/C is 58 % of control.

What about the T/C (endpoint: mean tumor weight, dose: 2.0 mg/kg/injection, schedule: Q02DX011 (ip), vehicle: saline, higher = larger tumour) of the same molecule?
Its T/C is 10 % of control and 12 % of control.

What about the T/C (endpoint: median survival time, dose: 2.0 mg/kg/injection, schedule: Q01DX009 (ip), vehicle: saline, higher = longer survival) of the same molecule?
The T/C was 122 % of control.

And the T/C (endpoint: median tumor weight (est.), dose: 1.0 mg/kg/injection, schedule: Q02DX011 (ip), vehicle: saline, higher = larger tumour)?
The T/C was 67 % of control.

What about the T/C (endpoint: median tumor weight (est.), dose: 2.0 mg/kg/injection, schedule: Q01DX009 (ip), vehicle: saline, higher = larger tumour) of the same molecule?
Its T/C is 29 % of control.

What about the T/C (endpoint: median tumor weight (est.), dose: 2.0 mg/kg/injection, schedule: Q02DX011 (ip), vehicle: saline, higher = larger tumour) of the same molecule?
Its T/C is 1 % of control and 8 % of control.

With `CC1(C)OC(C)(C)c2c1nnc(-c1ccccc1)[n+]2[O-]` as the molecule, how does the T/C (endpoint: median survival time, dose: 50.0 mg/kg/injection, schedule: Q01DX009 (ip), vehicle: saline with Tween-80, higher = longer survival) read?
The T/C was 93 % of control.

What about the T/C (endpoint: median survival time, dose: 100.0 mg/kg/injection, schedule: Q01DX009 (ip), vehicle: saline with Tween-80, higher = longer survival) of the same molecule?
Its T/C is 105 % of control.

And the T/C (endpoint: median survival time, dose: 200.0 mg/kg/injection, schedule: Q01DX009 (ip), vehicle: saline with Tween-80, higher = longer survival)?
Its T/C is 103 % of control.

And the T/C (endpoint: median tumor weight (est.), dose: 100.0 mg/kg/injection, schedule: Q01DX009 (ip), vehicle: saline with Tween-80, higher = larger tumour)?
The T/C was 84 % of control.

And the T/C (endpoint: median tumor weight (est.), dose: 200.0 mg/kg/injection, schedule: Q01DX009 (ip), vehicle: saline with Tween-80, higher = larger tumour)?
Its T/C is 60 % of control.

`Nc1nc([Se])c2ncn(C3OC(CO)C(O)C3O)c2n1` (centres undefined) was tested. Which T/C (endpoint: median survival time, dose: 4.0 mg/kg/injection, schedule: Q01DX009 (ip), vehicle: saline, higher = longer survival) did it give?
The T/C was 108 % of control.

What about the T/C (endpoint: median survival time, dose: 8.0 mg/kg/injection, schedule: Q01DX009 (ip), vehicle: saline, higher = longer survival) of the same molecule?
Its T/C is 118 % of control.

What about the T/C (endpoint: median survival time, dose: 8.0 mg/kg/injection, schedule: Q01DX009 (ip), vehicle: suspension in saline, higher = longer survival) of the same molecule?
The T/C was 118 % of control.

And the T/C (endpoint: median survival time, dose: 16.0 mg/kg/injection, schedule: Q01DX009 (ip), vehicle: saline, higher = longer survival)?
The T/C was 119 % of control.

What about the T/C (endpoint: median survival time, dose: 16.0 mg/kg/injection, schedule: Q01DX009 (ip), vehicle: suspension in saline, higher = longer survival) of the same molecule?
The T/C was 119 % of control.

And the T/C (endpoint: median tumor weight (est.), dose: 4.0 mg/kg/injection, schedule: Q01DX009 (ip), vehicle: saline, higher = larger tumour)?
The T/C was 64 % of control.

What about the T/C (endpoint: median tumor weight (est.), dose: 8.0 mg/kg/injection, schedule: Q01DX009 (ip), vehicle: saline, higher = larger tumour) of the same molecule?
Its T/C is 33 % of control.

What about the T/C (endpoint: median tumor weight (est.), dose: 8.0 mg/kg/injection, schedule: Q01DX009 (ip), vehicle: suspension in saline, higher = larger tumour) of the same molecule?
The T/C was 24 % of control.

What about the T/C (endpoint: median tumor weight (est.), dose: 16.0 mg/kg/injection, schedule: Q01DX009 (ip), vehicle: saline, higher = larger tumour) of the same molecule?
Its T/C is 8 % of control.

What about the T/C (endpoint: median tumor weight (est.), dose: 16.0 mg/kg/injection, schedule: Q01DX009 (ip), vehicle: suspension in saline, higher = larger tumour) of the same molecule?
Its T/C is 6 % of control.
